Here are results for 1 molecule from patent US20230301890A1, “COMPOSITIONS COMPRISING UROLITHINS” (Amazentis SA, priority 2022, published 2023).

For test [1], the system named is Normal Adult Human Epidermal Keratinocytes (NHEK-Ad). Nature of the test: RNA sequencing gene expression in human primary keratinocytes. The class given is cell-based. To be noted: for expression of autophagy/mitophagy and mitochondrial function genes / expression of MMP1: vs DMSO/vehicle. How it is done: Study was conducted on Normal Adult Human Dermal Fibroblasts (NHDF-Ad) from two pooled donors (Catalog #: CC-2511) and Normal Adult Human Epidermal Keratinocytes (NHEK-Ad) from two pooled donors (Catalog #: 00192627, Lonza). The primary skin cells were amplified in flask and seeded in 12-well cell culture plates, filled with 1 mL of culture medium and then incubated at 37° C. with 5% CO2 and saturated hygrometry. The basic culture medium of human dermal fibroblasts was composed of FBM™ medium (Fibroblast Growth Basal Medium) supplemented with insulin 0.1%, hFGF-B 0.1%, GA-1000 0.1% and FBS 2%. The basic culture medium of human keratinocytes was composed of KBM™ Gold medium (Keratinocytes Basal Medium) supplemented with Hydrocortisone, Transferrin, Epinephrine, Gentamycin, Amphotericin B, BPE, hEGF and Insulin. Primary cells were treated at confluency (approximatively 250000 cells per well) with 0.1% DMSO (control), 2.5 μM and 10 μM of Urolithin A for 24 h, and harvested for RNA sequencing and expression profiling using the NGS platform.

In the next test the test system is facial wrinkles. Kind of test: Aging study 1: wrinkle analysis of Colorface images. Type of test: in vivo, human. The source says:
The effect of the test product on the skin barrier function will be assessed by transepidermal […] (TEWL) at the beginning as well as after 2 weeks and after 8 weeks of product application. Furthermore, effects on the facial skin on skin hydration (by Corneometer), skin elasticity and firmness (by Cutometer) and skin color (by Spectrophotometer) will be investigated. Additionally, skin layer thickness and undulation index of the dermal epidermal junction (DEJ) will be measured by line-field confocal optical coherence tomography (LC-OCT). Images for wrinkle analysis and for documentation purpose will be taken with Colorface. A questionnaire regarding product traits will be filled in after 2 weeks of product application and at the end of the study.
The following efficacy assessment(s) will be performed: • Biomarker analysis of 3 mm punch-biopsies on 30 subjects (15 subjects per group) by Sponsor/3rd party • Transepidermal Water Loss (TEWL) by Tewameter [g/(m2h)j • Skin Hydration—Skin Capacitance by Corneometer [a.u.j] (see FIG. 8) • Skin Color by Spectrophotometer • Skin Firmness—R0 (Uf) by Cutometer [mm] • Skin Elasticity—R7 (Ur/Uf) by Cutometer • Image analysis by line-field confocal optical coherence tomography (LC-OCT) by Damae**: • (a) Skin layer thickness (epidermis and stratum corneum) • (b) Undulation index of the dermal epidermal junction (DEJ) • Image analysis of Colorface Images by Newtone • (a) analysis of wrinkles and fine lines (see FIG. 7) • (b) creation of average face • Questionnaire of product traits • upon decision of the sponsor, depending on the results of the other instrumental measurements analysis will be done on either one group at three timepoints, or on two groups at two timepoints
COLORFACE® PHOTOBOX (Newtone Technologies, Lyon, France): Colorface® is used for standardized, computer-controlled facial photography. It is equipped with a 24 Mpixel Nikon camera and a various range of LED-flashes at fixed positions in the booth. Illumination of the face is done with • ? standard flashes • ? parallel-polarized light • ? cross-polarized light • □ UV flashes to obtain fluorescent images. The acquisition software for Colorface is used as image database, but also defines the settings for the respective study. All settings are fixed so that unwanted changes of image capture parameters can be avoided. The instrument enables facial photography of high quality and same illumination at different assessment times. Images of the following position of the face will be taken: • ? front • ? right • ? left • 1 single image per setting, face position and assessment time • Data will be stored in the Newtone Imaging access cloud • Images will be provided to the sponsor in an anonymized way (e.g., black bar covering eyes) if possible.
Crow's Feet Analysis: • Parameter: Visible length, Visible surface, Visible depth and Visible volume • Illumination: STD60 • View: profile: right and left • Area: Crow's Feet

In test [2] the test system is wrinkles in the periorbital regions. Nature of the test: Aging study 2: skin roughness (wrinkle) by DermaTOP. Type of test: in vivo, human. The note with it: 1% UA creams, 2, 4 and 8 weeks, vs untreated side; listed as UA. The source says: Anti-wrinkle efficacy will be assessed in the periorbital regions by investigating the three-dimensional structure of the wrinkles (DermaTOP). Skin hydration, skin elasticity effects and skin barrier function will be investigated by Corneometer, Cutometer and Tewameter measurements. On a subgroup of 12 subjects the ceramide content, including barrier lipids, in the Stratum Corneum will be performed by Raman Spectroscopy. […]
DERMATOP blue (Eo Tech SA, Marcoussis France): Using phase-shifted and gray-coded measurements of human skin the three-dimensional surface structure of the investigated skin site is captured. […] The fringes that are projected under a defined triangulation angle onto the surface of the measured target with a sinus-like intensity of brightness are detected with a CCD camera. The three-dimensional skin surface profile is calculated from the position of the fringes in combination with the gray values of each pixel. From the captured three-dimensional structure, roughness parameters are calculated. […]

“Also recorded” adds a separate entry of the source.

As to `O=c1oc2cc(O)ccc2c2ccc(O)cc12` [Urolithin A], the “expression of genes encoding collagen degradation enzymes (MMPs, ADAMs)” value in test [1] (2.5 uM or 10 uM, 24 h, vs DMSO) is given as “reduces expression”. Further, the “expression of genes encoding proinflammatory cytokines (IL1A, IL1B)” value in test [1] (2.5 uM or 10 uM, 24 h, vs DMSO) was “reduces expression”. Further, the “expression of autophagy/mitophagy and mitochondrial function genes” value in test [1] (2.5 uM or 10 uM, 24 h) is reported as “increases the expression”; in test [1] (2.5 uM or 10 uM, 24 h, listed as UA), “upregulated”. Besides, the “expression of mitophagy marker PINK1” value in test [1] (2.5 uM or 10 uM, vs DMSO) is recorded as “increased”. Further, the “expression of MMP1” value in test [1] (24 h) is on record as “decreases”; in test [1] (24 h, listed as UA), “drastic downregulation”. In test [1] (24 h, vs vehicle), the “expression of MMP3” value is on record as “drastic downregulation”. The wrinkle depth entry was “no impact” in the test with facial wrinkles (0.5% Urolithin A skin cream, vs placebo); “did not showed any significant effect” with facial wrinkles (0.5% Urolithin A skin cream, vs placebo, listed as UA); “Lack of anti-wrinkle effect” in the test with facial wrinkles (0.5% Urolithin A skin cream, vs placebo, listed as urolithin A); “significant impact on reducing wrinkle depth” with facial wrinkles (1% Urolithin A skin cream, 8 weeks twice daily, vs placebo treated side); “significant anti-wrinkle effects; also recorded: significant reduction” in the test on facial wrinkles (1% Urolithin A skin cream, 8 weeks twice daily, vs placebo treated side, listed as UA); “Reduction; also recorded: Anti-wrinkle effect” with facial wrinkles (1% Urolithin A skin cream, 8 weeks twice daily, vs placebo treated side, listed as urolithin A). For the same molecule, in the test on facial wrinkles (cream containing Urolithin A at 1% alone), the reduction in wrinkles is given as 4-6%. Moreover, in test [2], the “wrinkles (finer and rougher skin structures, Ra and Rz)” value is “significant anti-wrinkle effects; also recorded: significant impact on reducing wrinkles”.
